Data taken from US20230183218A1, “CONDENSED SUBSTITUTED HYDROPYRROLES AS ANTAGONISTS OF THE MUSCARINIC ACETYLCHOLINE RECEPTOR M4” (Vanderbilt University, priority 2020, published 2023).

Key:
[1] = target: T1, Human M4 (Homo sapiens, UniProt P08173); assay: mAChR M4 cell-based functional assay (calcium flux, antagonist mode vs EC80 acetylcholine), human M4/Gqi5/CHO-K1 cells; conditions: for remaining activity at 30 µM: CHO-K1, % ACh maximum at 30 μM, human M4, read-out: Human M4 Emin (%); for IC50: decrease of response elicited by EC80 acetylcholine, human M4/Gqi5 CHO-K1 cells
T1 construct: expressed in transfected cells; host or cells: CHO-K1 (ATCC), stably co-expressing chimeric G protein Gqi5
T1 sequence (P08173 1-479): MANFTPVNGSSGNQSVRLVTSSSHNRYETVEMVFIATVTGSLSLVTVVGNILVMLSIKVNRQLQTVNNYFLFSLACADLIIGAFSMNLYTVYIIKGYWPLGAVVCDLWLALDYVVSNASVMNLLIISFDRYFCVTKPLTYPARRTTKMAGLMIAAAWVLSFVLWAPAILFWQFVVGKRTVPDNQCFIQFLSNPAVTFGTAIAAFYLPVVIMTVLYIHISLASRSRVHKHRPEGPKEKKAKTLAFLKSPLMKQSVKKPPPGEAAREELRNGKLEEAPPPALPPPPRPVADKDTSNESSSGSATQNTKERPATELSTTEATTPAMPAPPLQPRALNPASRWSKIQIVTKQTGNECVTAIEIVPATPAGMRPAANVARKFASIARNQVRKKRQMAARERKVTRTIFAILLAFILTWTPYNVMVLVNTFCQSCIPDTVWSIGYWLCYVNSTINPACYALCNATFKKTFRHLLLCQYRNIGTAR
Protocol: (§1) Human or rat M4 cDNA, along with the chimeric G protein Gqi5, were transfected into Chinese hamster ovary (CHO-K1) cells purchased from the American Type Culture Collection using Lipofectamine2000. M4/Gqi5/CHO cells were grown in Ham's F-12 medium containing 10% heat-inactivated fetal bovine serum (FBS), 20 mM HEPES, 500 μg/mL G418 sulfate, and 200 μg/mL Hygromycin B.
(§2) For high throughput measurement of agonist-evoked increases in intracellular calcium, CHO-K1 cells stably expressing muscarinic receptors were plated in growth medium lacking G418 and hygromycin at 15,000 cells/20 μL/well in Greiner 384-well black-walled, tissue culture (TC)-treated, clear-bottom plates (VWR). Cells were incubated overnight at 37° C. and 5% CO2. The next day, cells were washed using an ELX 405 (BioTek) with assay buffer; the final volume was then aspirated to 20 μL. Next, 20 μL of a 2.3 μM stock of Fluo-4/acetoxymethyl ester (Invitrogen, Carlsbad, Calif.), prepared as a 2.3 mM stock in DMSO and mixed in a 1:1 ratio with 10% (w/v) Pluronic F-127 and diluted in assay buffer, was added to the wells and the cell plates were incubated for 50 min at 37° C. and 5% CO2. Dye was removed by washing with the ELX 405 and the final volume was aspirated to 20 μL. Compound master plates were formatted in a 10 point concentration-response curve (CRC) format (1:3 dilutions) in 100% DMSO with a starting concentration of 10 or 1 mM using a BRAVO liquid handler (Agilent). Test compound CRCs were then transferred to daughter plates (240 nL) using the Echo acoustic plate reformatter (Labcyte, Sunnyvale, Calif.) and then diluted into assay buffer (40 μL) to a 2× stock using a Thermo Fisher Combi (Thermo Fisher Scientific, Waltham, Mass.).
(§3) Calcium flux was measured using the Functional Drug Screening System (FDSS) 6000 or 7000 (Hamamatsu Corporation, Tokyo, Japan) as an increase in the fluorescent static ratio. Compounds were applied to cells (20 μL, 2×) using the automated system of the FDSS at 2 seconds into the protocol and the data were collected at 1 Hz. At 143 s, 10 μL of an EC20 concentration of the muscarinic receptor agonist acetylcholine was added (5×), followed by the addition of 12 μL of an EC80 concentration of acetylcholine at the 268 s time point (5×). Agonist activity was analyzed as a concentration-dependent increase in calcium mobilization upon compound addition. Positive allosteric modulator activity was analyzed as a concentration-dependent increase in the EC20 acetylcholine response. Antagonist activity was analyzed as a concentration-dependent decrease in the EC80 acetylcholine response; for the purposes of the tables herein, an IC50 (inhibitory concentration 50) was calculated as a concentration-dependent decrease of the response elicited by an EC80 concentration of acetylcholine. Concentration-response curves were generated using a four-parameter logistical equation in XLFit curve fitting software (IDBS, Bridgewater, N.J.) for Excel (Microsoft, Redmond, Wash.) or Prism (GraphPad Software, Inc., San Diego, Calif.) or the Dotmatics software platform (Dotmatics, Bishop's Stortford, UK).
(§4) Compounds were synthesized as described above. Activity (IC50 and Emin) was determined in the mAChR M4 cell-based functional assay as described above and the data are shown in Table 2.

[2] = target: T2, Rat M4 (Rattus norvegicus, UniProt P08485); assay: mAChR M4 cell-based functional assay (calcium flux, antagonist mode vs EC80 acetylcholine), rat M4/Gqi5/CHO-K1 cells; conditions: for remaining activity at 30 µM: CHO-K1, % ACh maximum at 30 μM, rat M4, read-out: Rat M4 Emin (%); for IC50: decrease of response elicited by EC80 acetylcholine, rat M4/Gqi5 CHO-K1 cells
T2 construct: expressed in transfected cells; host or cells: CHO-K1 (ATCC), stably co-expressing chimeric G protein Gqi5
T2 sequence (P08485 1-478): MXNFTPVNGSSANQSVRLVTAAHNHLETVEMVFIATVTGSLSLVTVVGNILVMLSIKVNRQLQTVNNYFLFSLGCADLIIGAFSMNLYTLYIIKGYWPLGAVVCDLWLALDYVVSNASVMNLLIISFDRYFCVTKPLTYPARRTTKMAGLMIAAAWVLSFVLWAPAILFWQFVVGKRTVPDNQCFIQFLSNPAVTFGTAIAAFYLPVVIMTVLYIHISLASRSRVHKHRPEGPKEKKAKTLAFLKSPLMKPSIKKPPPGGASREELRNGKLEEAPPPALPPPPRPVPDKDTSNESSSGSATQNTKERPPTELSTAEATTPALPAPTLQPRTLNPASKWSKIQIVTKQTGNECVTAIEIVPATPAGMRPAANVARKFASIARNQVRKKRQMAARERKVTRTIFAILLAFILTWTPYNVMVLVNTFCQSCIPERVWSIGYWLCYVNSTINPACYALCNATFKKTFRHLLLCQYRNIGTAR
Protocol: as §1, §2, §3, §4

remaining activity at 30 µM [1] [%] | IC50 [1] [µM] | remaining activity at 30 µM [2] [%] | IC50 [2] [µM] | Compound
4 | 0.161 | 32 | > 10 | Fc1ccc(Cl)c(-c2ccc(N[C@H]3C[C@@H]4CN(C5(C6CCOCC6)CC5)C[C@@H]4C3)nn2)c1 [compound 64, (3aR,5s,6aS)-N-(6-(2-chloro-5-fluorophenyl)pyridazin-3-yl)-2-(1-(tetrahydro-2H-pyran-4-yl)cyclopropyl)octahydrocyclopenta[c]pyrrol-5-amine]
4 | 0.0105 | 4 | 0.217 | CCCN1C(=O)C(C)(C)c2cc(N[C@H]3C[C@@H]4CN(CCC(C)(C)C)C[C@@H]4C3)nnc21 [compound 72, 3-(((3aR,5s,6aS)-2-(3,3-dimethylbutyl)octahydrocyclopenta[c]pyrrol-5-yl)amino)-5,5-dimethyl-7-propyl-5,7-dihydro-6H-pyrrolo[2,3-c]pyridazin-6-one]
7 | 0.0102 | 5 | 0.884 | Fc1ccc(Cl)c(-c2ccc(N[C@H]3C[C@@H]4CN(C5CCSCC5)C[C@@H]4C3)nn2)c1 [compound 15, (3aR,5s,6aS)-N-(6-(2-chloro-5-fluorophenyl)pyridazin-3-yl)-2-(tetrahydro-2H-thiopyran-4-yl)octahydrocyclopenta[c]pyrrol-5-amine]
– | – | 70 | > 10 | CC1(C)CC(N2C[C@H]3C[C@H](Nc4ncc(-c5ccccc5)s4)C[C@H]3C2)CCO1 (stereo partly drawn) [compound 19, N-((3aR,5s,6aS)-2-(2,2-dimethyltetrahydro-2H-pyran-4-yl)octahydrocyclopenta[c]pyrrol-5-yl)-5-phenylthiazol-2-amine]
9 | 0.417 | – | – | O=C(NC1CC1)c1ccc(N[C@H]2C[C@@H]3CN(CC4CCOCC4)C[C@@H]3C2)nn1 [compound 3, N-cyclopropyl-6-(((3aR,5s,6aS)-2-((tetrahydro-2H-pyran-4-yl)methyl)octahydrocyclopenta[c]pyrrol-5-yl)amino)pyridazine-3-carboxamide]

Second part, the compound before the results:

Compound | remaining activity at 30 µM [1] [%] | IC50 [1] [µM] | remaining activity at 30 µM [2] [%] | IC50 [2] [µM]
CC1(C)CC(N2C[C@H]3C[C@H](Nc4ccc(-c5cc(F)ccc5Cl)nn4)C[C@H]3C2)CCO1 (stereo partly drawn) [compound 16, (3aR,5s,6aS)-N-(6-(2-chloro-5-fluorophenyl)pyridazin-3-yl)-2-(2,2-dimethyltetrahydro-2H-pyran-4-yl)octahydrocyclopenta[c]pyrrol-5-amine] | 4 | 0.0019 | 4 | 0.0973
CC1(C)CC(N2C[C@H]3C[C@H](Nc4ccc(-c5ccc(F)cc5)nn4)C[C@H]3C2)CCO1 (stereo partly drawn) [compound 54, (3aR,5s,6aS)-2-(2,2-dimethyltetrahydro-2H-pyran-4-yl)-N-(6-(4-fluorophenyl)pyridazin-3-yl)octahydrocyclopenta[c]pyrrol-5-amine] | 3 | 0.0329 | 5 | 0.534
Cc1nn(C)cc1-c1ccc(N[C@H]2C[C@@H]3CN(C4CCOC(C)(C)C4)C[C@@H]3C2)nn1 (stereo partly drawn) [compound 22, (3aR,5s,6aS)-N-(6-(1,3-dimethyl-1H-pyrazol-4-yl)pyridazin-3-yl)-2-(2,2-dimethyltetrahydro-2H-pyran-4-yl)octahydrocyclopenta[c]pyrrol-5-amine] | 6 | 0.00452 | 11 | 6.39
Fc1ccc(Cl)c(-c2ccc(N[C@H]3C[C@@H]4CN(C5CCCCCC5)C[C@@H]4C3)nn2)c1 [compound 75, (3aR,5s,6aS)-N-(6-(2-chloro-5-fluorophenyl)pyridazin-3-yl)-2-cycloheptyloctahydrocyclopenta[c]pyrrol-5-amine] | 2 | 0.0032 | 3 | 0.0418
O=S1(=O)CCC(N2C[C@H]3C[C@H](Nc4ccc(-c5cc(F)ccc5Cl)nn4)C[C@H]3C2)CC1 [compound 79, 4-((3aR,5s,6aS)-5-((6-(2-chloro-5-fluorophenyl)pyridazin-3-yl)amino)hexahydrocyclopenta[c]pyrrol-2(1H)-yl)tetrahydro-2H-thiopyran 1,1-dioxide] | 8 | 1.75 | 42 | > 10
CC1(C)CC(N2C[C@H]3C[C@H](Nc4ccc5nncn5n4)C[C@H]3C2)CCO1 (stereo partly drawn) [compound 61, N-((3aR,5s,6aS)-2-(2,2-dimethyltetrahydro-2H-pyran-4-yl)octahydrocyclopenta[c]pyrrol-5-yl)-[1,2,4]triazolo[4,3-b]pyridazin-6-amine] | 52 | > 10 | – | –
N#Cc1ccccc1N1C[C@H]2C[C@H](Nc3ccc(-c4cc(F)ccc4Cl)nn3)C[C@H]2C1 [compound 17, 2-((3aR,5s,6aS)-5-((6-(2-chloro-5-fluorophenyl)pyridazin-3-yl)amino)hexahydrocyclopenta[c]pyrrol-2(1H)-yl)benzonitrile] | 57 | ≥ 10 | – | –
O=C(Nc1cccc(F)c1)c1ccc(N[C@H]2C[C@@H]3CN(CC4CCOCC4)C[C@@H]3C2)nn1 [compound 9, N-(3-fluorophenyl)-6-(((3aR,5s,6aS)-2-((tetrahydro-2H-pyran-4-yl)methyl)octahydrocyclopenta[c]pyrrol-5-yl)amino)pyridazine-3-carboxamide] | 3 | 0.713 | – | –
O=C(NC1CCCCC1)c1ccc(N[C@H]2C[C@@H]3CN(CC4CCOCC4)C[C@@H]3C2)nn1 [compound 4, N-cyclohexyl-6-(((3aR,5s,6aS)-2-((tetrahydro-2H-pyran-4-yl)methyl)octahydrocyclopenta[c]pyrrol-5-yl)amino)pyridazine-3-carboxamide] | 6 | 0.535 | – | –
